# Assay results from US5258385A, “β-Carboline-derived compounds, lamchart benzodiazepine-receptor ligands, having an inverse agonist and antagonist effect on benzodiazepines, and drugs containing them” (Centre National de la Recherche Scientifique (CNRS), priority 1991, dated 1993).
# Experiments:
# benzodiazepine receptor [1] = test: In vitro binding to benzodiazepine receptor, displacement of 3H-flunitrazepam, rat brain cortical membranes
# benzodiazepine receptor [2] = test: In vivo behavior and antagonism of diazepam sedation in mice; details: sc
# Description: The antagonist properties of the lactone were also assessed in vivo in mice.
# benzodiazepine receptor [3] = test: Effect on current in xenopus oocyte expressing the benzodiazepine receptor (mRNA); format: cell-based
# Excerpt: The effect of the lactone on the benzodiazepine receptor expressed was first expressed, using the corresponding messenger RNA, in xenopus oocyte.
# [4] = anxiolytic, anti-convulsant and the like; cited from earlier work
# [5] = tested on: learning and information retention; details: man; cited from earlier work
# [6] = target: central receptors for benzodiazepines; details: in vitro, rat brain; read-out: IC50 binding to central receptors for benzodiazepines; cited from earlier work
# [7] = tested on: convulsions caused by other agents such as pentylenetetrazole; details: cited from earlier work
# learning and memory = details: cited from earlier work
smiles,measurement,setting,value
"O=C1OC(CO)c2c1ncc1[nH]c3ccccc3c21 (stereo not drawn) [Compound No. 3, 10-Hydroxymethylbutanolide[2.3-]-β-Carboline]",affinity relative to diazepam (20 nM),benzodiazepine receptor [1]; times higher than diazepam,100 times
same,affinity relative to β-CCE (4 nM),benzodiazepine receptor [1]; times higher than β-CCE,20 times
same,convulsant or sedative effect in mice,benzodiazepine receptor [2]; 5 mg/kg,neither convulsant nor sedative
same,effect on behavior of mice,benzodiazepine receptor [2]; 5 mg/kg,produces no effect on their behavior
same,antagonism of sedation caused by diazepam,"benzodiazepine receptor [2]; compound 5 or 10 mg/kg, diazepam 7.5 mg/kg",completely avoided
same,effect on GABA-generated current in oocyte,benzodiazepine receptor [3]; lactone (10^6 M [sic]) simultaneously with 10^5 M (so in the source) GABA,no increase or decrease was observed in the current
same,inhibition of the increase in current generated by diazepam,"benzodiazepine receptor [3]; lactone (10^6 M [sic]), diazepam (10^6 M [sic])",inhibits substantially the increase in the current
same,receptor profile in oocyte test,benzodiazepine receptor [3]; with GABA,"behaves, in this test, like an antagonist of the benzodiazepine receptor"
CCOC(=O)c1ncc2[nH]c3cccc(OCc4ccccc4)c3c2c1COC [ZK 91296],properties in vivo compared with diazepam,[4],properties similar to those of diazepam in vivo
CCOC(=O)c1ncc2[nH]c3ccc(OCc4ccccc4)cc3c2c1COC [ZK 93423],properties in vivo compared with diazepam,[4],properties similar to those of diazepam in vivo
CCOC(=O)c1ncc2[nH]c3cccc(OC(C)C)c3c2c1C [ZK 93426],learning and information retention,[5],improve learning and information retention in man
"CCOC(=O)c1cc2c(cn1)[nH]c1ccccc12 [β-CCE, ethyl ester of β-carboline-3-carboxylic acid]",IC50,[6],4 nM
same,in vivo pharmacological effects compared with benzodiazepines,[7]; in vivo,opposed to those of benzodiazepines
same,proconvulsant effect,[7]; mice,proconvulsant in mice which facilitates the convulsions caused by other agents such as pentylenetetrazole
COC(=O)c1cc2c(cn1)[nH]c1ccccc12 [β-CCM],effect on learning and memory,learning and memory; in vivo,positive effect on learning and memory
same,convulsant activity,learning and memory; prevented testing in man,highly convulsant activity
